Results on four compounds are retold here after patent US9145351B2, “Azole derivatives, methods for producing the same, intermediate thereof, agro-horticultural agents” (KUREHA CORPORATION, priority 2009, dated 2015).

Read-outs that look alike come from different tables or passages of the source. A value given as a limit tells only on which side of the number the result lay.

What all share (type): cell-based
One experiment has as its system Pyricularia oryzae. The experiment in a line: microbe, parasite or virus in culture. The following applies: Pyricularia oryzae.
The subject of experiment [1] is Pseudocercoporella herpotrichoides. Briefly: Plate medium fungicidal assay, wheat eye spot P.h (Experimental Example 5). As for the experimental part:
(§1) In this Experimental Example, the fungicidal effects of the inventive compounds on various phytopathogenic fungi for plants and hazardous microorganism for industrial materials were examined by the methods described below. Each inventive compound was dissolved in 2 ml of dimethyl sulfoxide. 0.6 ml of this solution was added to 60 nil of a PDA medium (potato dextrose agar medium) at about 60 degrees C., which was mixed thoroughly in a 100-ml conical flask, and poured into a dish, where it was solidified, thereby obtaining a plate medium containing the inventive compound at 50 mg/L and 5 mg/L. On the other hand, a subject microorganism previously cultured on a plate medium was cut out using a cork borer whose diameter was 4 mm, and inoculated to the test compound-containing plate medium described above. […] The growth degree of the microorganism on the test compound-containing plate medium thus observed was compared with the growth degree of the microorganism in the untreated group, and % mycelial growth inhibition was calculated by the following equation. R=100(dc−dt)/dc wherein R=% mycelial extension inhibition, dc=flora diameter in untreated plate, dt=flora diameter in treated plate. The results obtained as described above were evaluated as one of the 5 grades according to the following criteria. […] Wheat eye spot (Pseudocercoporella herpotrichoides) P.h

In a further experiment the test system is Ustilago nuda. Briefly: Plate medium fungicidal assay, barley loose smut U.n (Experimental Example 5). To be noted: Ustilago nuda. The procedure:
as §1, with “Barley loose smut (Ustilago nuda) U.n” for “Wheat eye spot (Pseudocercoporella herpotrichoides) P.h”

For the next experiment, the system named is Sclerotinia sclerotiorum. Briefly: Plate medium fungicidal assay, Sclerotinia rot S.s (Experimental Example 5). To be noted: Sclerotinia sclerotiorum. As for the experimental part:
as §1, with “Sclerotinia rot (Sclerotinia sclerotiorum) S.s” for “Wheat eye spot (Pseudocercoporella herpotrichoides) P.h”

In another experiment the test system is Phaeosphaeria nodorum. Briefly: Plate medium fungicidal assay, wheat Septoria nodorum blotch P.n (Experimental Example 5). To be noted: Parastagonospora nodorum. As for the experimental part: as §1, with “Septoria nodorum blotch (Phaeosphaeria nodorum) P.n” for “eye spot (Pseudocercoporella herpotrichoides) P.h”
The subject of the next experiment is Fusarium graminearum. Briefly: microbe, parasite or virus in culture. The following applies: Fusarium graminearum.
A further experiment concerns Fusarium oxysporum. Briefly: Plate medium fungicidal assay, cucumber fusarium wilt F.c (Experimental Example 5). To be noted: Fusarium oxysporum. The procedure: as §1, with “Cucumber fusarium wilt (Fusarium oxysporum) F.c” for “Wheat eye spot (Pseudocercoporella herpotrichoides) P.h”
[2] abbreviates: read-out: Growth inhibition grade, P.o.
[3] abbreviates: plate medium containing compound at 5 mg/L, read-out: Growth inhibition grade, P.h.
Where [4] appears, read: plate medium containing compound at 50 mg/L, read-out: Growth inhibition grade, P.h.
Where [5] appears, read: plate medium containing compound at 5 mg/L, read-out: Growth inhibition grade, U.n.
Setting [6] is: plate medium containing compound at 50 mg/L, read-out: Growth inhibition grade, U.n.
Setting [7] is: plate medium containing compound at 5 mg/L, read-out: Growth inhibition grade, S.s.
Where [8] appears, read: plate medium containing compound at 50 mg/L, read-out: Growth inhibition grade, S.s.
The mark [9] stands for this setting: plate medium containing compound at 5 mg/L, read-out: Growth inhibition grade, P.n.
The mark [10] stands for this setting: plate medium containing compound at 50 mg/L, read-out: Growth inhibition grade, P.n.
The mark [11] stands for this setting: read-out: Growth inhibition grade, F.g.
[12] abbreviates: plate medium containing compound at 5 mg/L, read-out: Growth inhibition grade, F.c.
[13] abbreviates: plate medium containing compound at 50 mg/L, read-out: Growth inhibition grade, F.c.
The mark [14] stands for this setting: read-out: growth inhibition grade P.o.
Where [15] appears, read: plate medium, 5 mg/L, read-out: growth inhibition grade P.h.
[16] abbreviates: plate medium, 50 mg/L, read-out: growth inhibition grade P.h.
The mark [17] stands for this setting: plate medium, 5 mg/L, read-out: growth inhibition grade U.n.
Setting [18] is: plate medium, 50 mg/L, read-out: growth inhibition grade U.n.
[19] abbreviates: plate medium, 5 mg/L, read-out: growth inhibition grade S.s.
[20] abbreviates: plate medium, 50 mg/L, read-out: growth inhibition grade S.s.
The mark [21] stands for this setting: plate medium, 5 mg/L, read-out: growth inhibition grade P.n.
[22] abbreviates: plate medium, 50 mg/L, read-out: growth inhibition grade P.n.
Where [23] appears, read: read-out: growth inhibition grade F.g.
Setting [24] is: plate medium, 5 mg/L, read-out: growth inhibition grade F.c.
The mark [25] stands for this setting: plate medium, 50 mg/L, read-out: growth inhibition grade F.c.

One may read the inhibition as the change of the read-out against control, counted positive when it falls. Regarding `O[C@]1(Cn2cncn2)[C@H](Cc2ccc(Cl)cc2)CC[C@@H]1C(F)(F)F` (racemic) [Compound I-65, (1RS,2SR,5SR)-5-(4-chlorobenzyl)-2-trifluoromethyl-1-(1H-1,2,4-triazol-1-ylmethyl)cyclopentanol], the inhibition at 5 µg/mL fell in the range of 40 to 60% with Pyricularia oryzae (setting [2]); 40 to 60% in experiment [1] (setting [3]); 40 to 60% in the experiment on Ustilago nuda (setting [5]); 40 to 60% in the experiment with Sclerotinia sclerotiorum (setting [7]); 60 to 80% in the experiment on Phaeosphaeria nodorum (setting [9]); 60 to 80% with Fusarium graminearum (setting [11]). Also, the inhibition at 5 µg/mL in the experiment on Fusarium oxysporum (setting [12]) fell in the range of 40 to 60%. The inhibition at 50 µg/mL (with Pyricularia oryzae (setting [2]); in experiment [1] (setting [4]); in the experiment on Ustilago nuda (setting [6]); in the experiment with Sclerotinia sclerotiorum (setting [8]); in the experiment with Phaeosphaeria nodorum (setting [10]); in the experiment on Fusarium graminearum (setting [11])) was greater than 80% each time. In the experiment on Fusarium oxysporum (setting [13]), the inhibition at 50 µg/mL is greater than 80%.
Turning to `C[C@]1(CCl)CC[C@@H](Cc2ccccc2)[C@]1(O)Cn1cncn1` (racemic) [Compound I-73, (1RS,2SR,5SR)-2-chloromethyl-5-benzyl-2-methyl-1-(1H-1,2,4-triazol-1-ylmethyl)cyclopentanol], the inhibition at 5 µg/mL (in the experiment with Pyricularia oryzae (setting [2]); with Pyricularia oryzae (setting [14]); in experiment [1] (setting [3]); in experiment [1] (setting [15]); with Ustilago nuda (setting [5]); in the experiment on Ustilago nuda (setting [17])) was greater than 80% in each case. Also, the inhibition at 5 µg/mL in the experiment with Sclerotinia sclerotiorum (setting [7]), with Sclerotinia sclerotiorum (setting [19]), in the experiment with Phaeosphaeria nodorum (setting [9]), in the experiment with Phaeosphaeria nodorum (setting [21]), with Fusarium graminearum (setting [11]) and in the experiment with Fusarium graminearum (setting [23]) was greater than 80% each time. The inhibition at 5 µg/mL with Fusarium oxysporum (setting [12]) and in the experiment on Fusarium oxysporum (setting [24]) was greater than 80% throughout. In addition, the inhibition at 50 µg/mL (in the experiment on Pyricularia oryzae (setting [2]); in the experiment with Pyricularia oryzae (setting [14]); in experiment [1] (setting [4]); in experiment [1] (setting [16]); in the experiment on Ustilago nuda (setting [6]); with Ustilago nuda (setting [18])) was greater than 80% each time. Moreover, the inhibition at 50 µg/mL in the experiment on Sclerotinia sclerotiorum (setting [8]), in the experiment on Sclerotinia sclerotiorum (setting [20]), with Phaeosphaeria nodorum (setting [10]), with Phaeosphaeria nodorum (setting [22]), in the experiment on Fusarium graminearum (setting [11]) and in the experiment with Fusarium graminearum (setting [23]) was greater than 80% in each case. Moreover, the inhibition at 50 µg/mL in the experiment with Fusarium oxysporum (setting [13]) and in the experiment with Fusarium oxysporum (setting [25]) was greater than 80% throughout.
Regarding `C[C@]1(CCl)CC[C@@H](Cc2cccc(Cl)c2)[C@]1(O)Cn1cncn1` (racemic) [Compound I-74, (1RS,2SR,5SR)-5-(3-chlorobenzyl)-2-chloromethyl-2-methyl-1-(1H-1,2,4-triazol-1-ylmethyl)cyclopentanol], the inhibition at 5 µg/mL (with Pyricularia oryzae (setting [2]); in experiment [1] (setting [3]); with Ustilago nuda (setting [5]); in the experiment on Sclerotinia sclerotiorum (setting [7]); in the experiment on Phaeosphaeria nodorum (setting [9]); in the experiment with Fusarium graminearum (setting [11])) was greater than 80% each time. In the experiment with Fusarium oxysporum (setting [12]), the inhibition at 5 µg/mL is greater than 80%. The inhibition at 50 µg/mL (in the experiment with Pyricularia oryzae (setting [2]); in experiment [1] (setting [4]); in the experiment with Ustilago nuda (setting [6]); in the experiment on Sclerotinia sclerotiorum (setting [8]); in the experiment with Phaeosphaeria nodorum (setting [10]); in the experiment on Fusarium graminearum (setting [11])) was greater than 80% each time. The inhibition at 50 µg/mL in the experiment on Fusarium oxysporum (setting [13]) is greater than 80%.
On to `C[C@]1(CCl)CC[C@@H](Cc2ccc(F)cc2)[C@]1(O)Cn1cncn1` (racemic) [Compound I-77, (1RS,2SR,5SR)-2-chloromethyl-5-(4-fluorobenzyl)-2-methyl-1-(1H-1,2,4-triazol-1-ylmethyl)cyclopentanol], for which the inhibition at 5 µg/mL (in the experiment with Pyricularia oryzae (setting [2]); in the experiment on Pyricularia oryzae (setting [14]); in experiment [1] (setting [3]); in experiment [1] (setting [15]); in the experiment on Ustilago nuda (setting [5]); in the experiment with Ustilago nuda (setting [17])) was greater than 80% each time. For the same compound, the inhibition at 5 µg/mL with Sclerotinia sclerotiorum (setting [7]), in the experiment on Sclerotinia sclerotiorum (setting [19]), in the experiment on Phaeosphaeria nodorum (setting [9]), in the experiment with Phaeosphaeria nodorum (setting [21]), with Fusarium graminearum (setting [11]) and with Fusarium graminearum (setting [23]) was greater than 80% in each case. Further, the inhibition at 5 µg/mL with Fusarium oxysporum (setting [12]) and in the experiment with Fusarium oxysporum (setting [24]) was greater than 80% each time. The inhibition at 50 µg/mL (in the experiment on Pyricularia oryzae (setting [2]); with Pyricularia oryzae (setting [14]); in experiment [1] (setting [4]); in experiment [1] (setting [16]); in the experiment on Ustilago nuda (setting [6]); in the experiment on Ustilago nuda (setting [18])) was greater than 80% throughout. In addition, the inhibition at 50 µg/mL in the experiment on Sclerotinia sclerotiorum (setting [8]), in the experiment with Sclerotinia sclerotiorum (setting [20]), with Phaeosphaeria nodorum (setting [10]), in the experiment with Phaeosphaeria nodorum (setting [22]), in the experiment on Fusarium graminearum (setting [11]) and with Fusarium graminearum (setting [23]) was greater than 80% in each case. The inhibition at 50 µg/mL in the experiment on Fusarium oxysporum (setting [13]) and with Fusarium oxysporum (setting [25]) was greater than 80% in each case.
